Test results as given in US7745404B2, “Use of calcitonin and calcitonin-like peptides to treat and prevent multiple sclerosis” (Wisconsin Alumni Research Foundation, priority 2002, dated 2010).

Key:
Type in all cases: in vivo
[1] = Serum calcium in female C57BL/6J mice, Example 3
Description: (§1) Collected blood samples were centrifuged at 6000 rpm for 15 minutes; followed by another 60-second spin at 14000 rpm. Serum samples were diluted in 0.1% LaCl3 and serum calcium values were measured using a Perkin Elmer atomic absorption spectrometer.
(§2) Blood samples were collected at multiple time-points and prepared and analyzed as described above. Likewise, statistical analysis was as performed as noted above.

[2] = system: experimental autoimmune encephalomyelitis (EAE) in male 1α-OH KO mice; test: EAE (murine model of MS) in male 1α-OH KO mice, Example 1
Description: (§3) To determine the effect of calcitonin on the murine model of MS, experimental autoimmune encephalomyelitis (EAE), 25-hydroxyvitamin D3-1α-hydroxylase knockout mice (1α-OH KO) were maintained on a purified diet containing 0.87% calcium and 1 ng 1,25-(OH)2D3 (Vit D) for two to three weeks prior to EAE immunization. EAE was induced at six to ten weeks of age by subcutaneous immunization of 200 μg of the immunodominant peptide to myelin oligodendrocyte glycoproprotein (MOG35-55).
(§4) The peptide was synthesized at University of Wisconsin Biotechnology Center using standard 9-fluorenyl-methoxy-carbonyl chemistry. The peptide was dissolved in Freund's complete adjuvant (CFA; Sigma; St. Louis, Mo.) containing 4 mg/ml of heat-inactivated Mycobacterium tuberculosis […] (Difco Laboratories; Detroit, Mich.).
(§5) Mice were injected with 200 ng of Bordetella pertussis toxin (List Biological Laboratories, Campbell, Calif.) on the day of immunization and 48 hours later. The mice were examined daily for clinical signs of EAE utilizing the following scoring system: 0, no sign; 1, limp tail; 2, hindlimb weakness; 3, hindlimb paralysis; 4, forelimb paralysis; 5, moribund or death.
(§6) Salmon calcitonin (sCT; Bachem California; Torrence, Calif.) was dissolved to a concentration of 1 mg/ml in a vehicle containing 150 mM NaCl, 1 mM HCl, and 2% heat inactivated sera. The serum used was from 1α-OH KO mice matched by sex to the group of mice receiving the treatment. SCT was chronically administered using Alzet osmotic minipumps model 1002 (Durect Corp.; Cupertino, Calif.) calibrated to deliver 0.25 μl/hour over a 15 day period.
(§7) Ten days after immunization, mice were weighed and the pumps were filled with either vehicle or sCT diluted to deliver 6 μg/kg of body weight per day to each mouse. The pumps were surgically placed subcutaneously in the upper back of mice anesthetized with 2% isofluorane. At the end of the study, successful delivery of the sCT was assessed by two methods. First, the fluid volume remaining in the pump reservoirs was measured. Second, the remaining sCT was pooled and intraperitoneally injected into 1α-knockout mice that were not included in the initial study. Serum calcium measurements were taken six hours after injection to determine if sCT maintained its bioactivity throughout the study. Blood samples were collected at multiple time-points throughout the study to monitor changes in serum calcium levels. Blood was obtained by the orbital bleed method. Approximately 150 μl was collected per mouse.
(§8) Statistical analysis was performed using the two-tailed Fisher exact probability test on incidence rates and the unpaired Student's t-test on all other measurements. Values of P<0.05 were considered statistically significant.

[3] = system: experimental autoimmune encephalomyelitis (EAE) in female 1α-OH KO mice; test: EAE (murine model of MS) in female 1α-OH KO mice, Example 1
Description: as §3, §4, §5, §6, §7, §8

[4] = system: EAE in female C57BL/6J mice; test: EAE in female C57BL/6J mice, sCT dose levels, Example 3; conditions: for % Sick / Incidence / Severity / Mean Onset Day: female C57BL/6J mice, standard chow; for Incidence: animals sick/total; for Severity: EAE score 0-5; for Mean Onset Day: days post immunization
Source text: To determine the effect of calcitonin on EAE in C57BL/6J mice (C57BL6 mice from Jackson Labs), female mice were maintained on a standard chow diet prior to and following EAE immunization. The C57BL6J strain was chosen primarily because it is one of the few strains susceptible to MOG-induced EAE, and also because the 1α-KO has been backcrossed into the C57BL6J strain. The diet was changed primarily because the mice being used were wild-type and no longer required the supplemented 1,25(OH)2D3 that the 1α-KO mice do. Additionally, we have typically seen higher incidence rates when animals are maintained on a regular chow diet versus the purified diet.
(§9) EAE was induced as described above. Mice were injected with 200 ng of B. pertussis toxin on the day of immunization and 48 hours later.
(§10) sCT was prepared as described above. One week after immunization, mice were weighed and the pumps were filled with vehicle, 6 μg/kg of sCT per day of body weight or 60 μg/kg of sCT per day of body weight to each mouse. The pumps were surgically placed subcutaneously in the upper back of mice anesthetized with 2% isofluorane. At the end of the study, successful delivery of the sCT was assessed by two methods. First, the fluid volume remaining in the pump reservoirs was measured. Second, the remaining sCT was pooled and intraperitoneally injected into C57BL/6J mice that were not included in the initial study. Serum calcium measurements were taken six hours after injection to determine if sCT maintained its bioactivity throughout the study.
(§11) Mice were examined daily, for over two weeks, for clinical signs of EAE utilizing the following scoring system as described above.
as §2

[5] = Serum calcium in 1α-OH KO mice, Example 1; conditions: 6 μg/kg of calcitonin
Description: as §7, §1

[6] = system: EAE in female C57BL/6J mice; test: EAE in female C57BL/6J mice, sCT started prior to immunization, Example 5
Description: To determine the effect of calcitonin in C57BL/6J mice on EAE prior to immunization, female mice were maintained on a standard chow diet prior to and following EAE immunization.
as §9
as §10, with “However, two days prior to” for “One week after”, “vehicle or” for “vehicle,”, “μg/kg” for “μg/kg of sCT”, “of” for “of body weight or 60 μg/kg of”, “sCT” for “sCT per day”
Mice were examined daily, for over two weeks, for clinical signs of EAE utilizing the scoring system described above.
(§12) Blood samples were collected at multiple time-points and prepared and analyzed as described above. Likewise, statistical analysis was performed as noted above.

[7] = system: EAE in female C57BL6h mice; test: EAE in female C57BL6h mice, Example 2
Description: To determine the effect of calcitonin on EAE in mice, female mice were maintained as described above. The strain of mouse used in this experiment was C57BL6 which was obtained from Harlan Labs and therefore should be designated C57BL6h. The only difference from the experiment above is that these mice were fed a regular chow diet (Formulab Chow 5008, PMI Labdiet).
as §9
as §10, with “6” for “6 μg/kg of sCT per day of body weight or 60”, “into” for “into C57BL/6J”
Mice were examined daily, for over two weeks, for clinical signs of EAE utilizing the following scoring system described above.
as §12

[8] = system: EAE in female C57BL/6J mice; test: EAE in female C57BL/6J mice, calcitonin and Vit D, Example 4; conditions: for EAE score: female C57BL6J mice, compared to 1 ng Vit D alone (FIG. 5, Table 6); for Incidence: vehicle pump, animals sick/total
Description: To determine the effect of calcitonin and Vit D on EAE in C57BL/6J mice, female C57BL/6J mice were maintained on standard chow until eight weeks of age, and then switched to a purified diet containing 0.87% calcium supplemented with 1 ng or 30 ng of 1,25-(OH)2D3 for one week prior to EAE immunization.
as §9
as §10, with “vehicle or 30” for “vehicle, 6”, “μg/kg” for “μg/kg of sCT”, “of” for “of body weight or 60 μg/kg of”, “sCT” for “sCT per day”
as §11, §12

[9] = Serum calcium in female C57BL/6J mice, Example 4; conditions: 30 ng Vit D (regardless of whether sCT was provided) compared to 1 ng Vit D
Description: as §1, §12

[10] = female C57BL/6J, 0.87% calcium diet with 1 ng Vit D
[11] = female C57BL/6J, 0.87% calcium diet with 30 ng Vit D

Compound: Salmon calcitonin [sCT]
- serum calcium levels ([1]; 6 μg/kg of calcitonin): initially lowered
- serum calcium levels ([1]; 60 μg/kg of calcitonin): initially lowered
- % Sick ([2]; male 1α-KO mice, 0.87% calcium + 1 ng Vitamin D diet, sCT 6 μg/kg per day by minipump): 28.6%
- Severity ([2]; male 1α-KO mice, 0.87% calcium + 1 ng Vitamin D diet, sCT 6 μg/kg per day by minipump, EAE score 0-5): 2.5 ± 0.7
- Mean Onset Day ([2]; male 1α-KO mice, 0.87% calcium + 1 ng Vitamin D diet, sCT 6 μg/kg per day by minipump, days post immunization): 30 ± 8 days
- Incidence ([2]; male 1α-KO mice, 0.87% calcium + 1 ng Vitamin D diet, sCT 6 μg/kg per day by osmotic minipump from ten days after immunization, animals sick/total): 2/7 sick
- reduction in the EAE score, male versus female ([2]; male 1α-OH KO mice treated with calcitonin compared with female 1α-OH KO mice treated with calcitonin): similar, but lesser, reduction in the EAE score
- EAE score ([2]; male 1α-OH KO mice, compared to vehicle alone (FIG. 2, Table 3)): lowered the EAE score
- % Sick ([3]; female 1α-KO mice, 0.87% calcium + 1 ng Vitamin D diet, sCT 6 μg/kg per day by minipump from ten days after immunization): 42.9%
- Severity ([3]; female 1α-KO mice, 0.87% calcium + 1 ng Vitamin D diet, sCT 6 μg/kg per day by minipump, EAE score 0-5): 1.3 ± 0.6
- Mean Onset Day ([3]; female 1α-KO mice, 0.87% calcium + 1 ng Vitamin D diet, sCT 6 μg/kg per day by minipump, days post immunization): 41 ± 11 days
- Incidence ([3]; female 1α-KO mice, 0.87% calcium + 1 ng Vitamin D diet, sCT 6 μg/kg per day by osmotic minipump from ten days after immunization, animals sick/total): 3/7 sick
- EAE score ([3]; female 1α-OH KO mice, compared to vehicle alone (FIG. 1, Table 2)): delayed and diminished the EAE score
- EAE score ([4]; female C57BL6J mice administered 60 μg/kg of calcitonin, compared to vehicle alone (FIG. 4, Table 5)): delayed and diminished the EAE score
- % Sick ([4]; 6 μg/kg sCT): 82.0%
- Incidence ([4]; 6 μg/kg sCT per day by minipump from one week after immunization): 9/11 sick
- Severity ([4]; 6 μg/kg sCT): 3.8 ± 0.6
- Mean Onset Day ([4]; 6 μg/kg sCT): 14 ± 3 days
- % Sick ([4]; 60 μg/kg sCT): 67.0%
- Incidence ([4]; 60 μg/kg sCT per day by minipump from one week after immunization): 6/9 sick
- Severity ([4]; 60 μg/kg sCT): 3.5 ± 1.3
- Mean Onset Day ([4]; 60 μg/kg sCT): 16 ± 2 days
- serum calcium levels ([5]; female 1α-OH KO mice): generally unaffected
- serum calcium levels ([5]; male 1α-OH KO mice): unaffected
- EAE score ([6]; female C57BL6J mice administered 6 μg/kg of calcitonin from two days prior to immunization, compared to vehicle alone (FIG. 6)): delayed and diminished the EAE score
- Incidence ([6]; female C57Bl/6J mice, standard chow, sCT 6 μg/kg per day by minipump from two days prior to immunization, animals sick/total): 19/20 sick
- % Sick ([6]; female C57Bl/6J mice, standard chow, sCT 6 μg/kg per day from two days prior to immunization): 95.0%
- Severity ([6]; female C57Bl/6J mice, standard chow, sCT 6 μg/kg per day from two days prior to immunization, EAE score 0-5): 2.9 ± 1.1
- Mean Onset Day ([6]; female C57Bl/6J mice, standard chow, sCT 6 μg/kg per day from two days prior to immunization, days post immunization): 15 ± 2 days
- EAE score ([7]; compared to vehicle alone (FIG. 3)): delayed and diminished the EAE score
- % Sick ([7]; sCT 6 μg/kg per day by minipump from one week after immunization): 25.0%
- Severity ([7]; sCT 6 μg/kg per day by minipump from one week after immunization, EAE score 0-5): 2.0 ± 0.7
- Mean Onset Day ([7]; sCT 6 μg/kg per day by minipump from one week after immunization, days post immunization): 14 ± 1 days
- Incidence ([7]; sCT 6 μg/kg per day by minipump from one week after immunization, table title: 0.87% calcium + 1 ng Vitamin D diet (text: regular chow), animals sick/total): 2/8 sick
- EAE score ([8]; sCT (30 μg/kg per day)): delayed and diminished the EAE score

Compound: C=C1/C(=C\C=C2/CCC[C@]3(C)[C@@H]([C@H](C)CCCC(C)(C)O)CC[C@@H]23)C[C@@H](O)C[C@@H]1O [Vit D, 1α,25-dihydroxyvitamin D3]
- serum calcium levels [9]: elevated
- EAE score ([8]; 30 ng Vit D): delayed and diminished the EAE score
- % Sick [8, 10]: 67.0%
- Incidence [8, 10]: 6/9 sick
- Severity ([8]; female C57BL/6J, 0.87% calcium diet with 1 ng Vit D, EAE score 0-5): 2.9 ± 0.9
- Mean Onset Day ([8]; female C57BL/6J, 0.87% calcium diet with 1 ng Vit D, days post immunization): 15 ± 2 days
- % Sick [8, 11]: 0.0%
- Incidence [8, 11]: 0/8 sick
